Test results taken from patent publication US11000033B2, “Ketone or oxime compound, and herbicide” (NISSAN CHEMICAL CORPORATION, priority 2014, dated 2021).

What was measured:
Format in all cases: in vivo
Digitaria ciliaris [1] = assay: Test Example 5: herbicidal effect by foliage application, plastic box (symbol F); conditions: 320 g/ha, 3 weeks after application
Outline: (§1)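 Herbicide, formulated as an emulsion and diluted in water, is sprayed onto the aerial parts of 14-day seedlings. These were grown at 25° C. to 30° C. in sterilized diluvial soil; effects are graded after 3 weeks.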

Apera spica-venti = assay: Test Example 5: herbicidal effect by foliage application, plastic box (symbol L); conditions: 320 g/ha, 3 weeks after application
Outline: as §1

[2] = tested on: Echinochloa crus-galli var. crus-galli; assay: Test Example 3: herbicidal effect by foliage application, Wagner pot (symbol H); conditions: application herbicide amount 320 g/ha
Outline: (§2)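 Foliar spray of a water-diluted emulsion at a predetermined herbicide amount, applied to 14-day-old plants. Seedlings were raised in flooded alluvial soil (0.1–0.5 cm water) at 25–30 °C in a greenhouse. Injury was rated after 3 weeks against fixed criteria.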

rapeseed = assay: Test Example 4: effect on crop by soil treatment (symbol g); conditions: application herbicide amount 320 g/ha
Outline: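 Sterilized diluvial soil, spot sowing, ~1.5 cm soil cover; greenhouse 25–30° C.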

[3] = tested on: Echinochloa oryzacola Vasing.; assay: Test Example 1: herbicidal activity, application before weed generation in submerged conditions (symbol A); conditions: application herbicide amount 320 g/ha
Outline: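 Greenhouse growth at 25–30 °C lasted 3 weeks after treatment, when each weed was graded 0–5 by herbicidal ratio. Treatment was a diluted emulsion applied to the water surface of 4 cm-submerged alluvial soil on the sowing day.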

Leptochloa chinensis = assay: Test Example 3: herbicidal effect by foliage application, Wagner pot (symbol D); conditions: application herbicide amount 320 g/ha
Outline: as §2

Abutilon theophrasti = assay: Test Example 5: herbicidal effect by foliage application, plastic box (symbol M); conditions: 320 g/ha, 3 weeks after application
Outline: as §1

Lolium multiflorum Lam. = assay: Test Example 5: herbicidal effect by foliage application, plastic box (symbol K); conditions: 320 g/ha, 3 weeks after application
Outline: as §1

Avena fatua = assay: Test Example 4: herbicidal effect by soil treatment (symbol I); conditions: application herbicide amount 320 g/ha
Outline: (§3)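 Seeds were sown in sterilized diluvial soil, covered with about 1.5 cm of soil, and the soil surface was sprayed with a water-diluted emulsion of the compound at a predetermined rate. Plants grew in a greenhouse at 25° C. to 30° C.; effects were scored visually 3 weeks after application.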

rice plant = assay: Test Example 5: effect on crop by foliage application, plastic box (symbol b); conditions: 320 g/ha, 3 weeks after application
Outline: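 Greenhouse test at 25° C. to 30° C. Seeds of crops and weeds were spot-sown in boxes of sterilized diluvial soil under roughly 1.5 cm soil cover, then grown for foliage treatment.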

Alopecurus myosuroides = assay: Test Example 4: herbicidal effect by soil treatment (symbol J); conditions: application herbicide amount 320 g/ha
Outline: as §3

Setaria viridis [4] = assay: Test Example 5: herbicidal effect by foliage application, plastic box (symbol G); conditions: 320 g/ha, 3 weeks after application
Outline: as §1

Setaria viridis [5] = assay: Test Example 4: herbicidal effect by soil treatment (symbol G); conditions: application herbicide amount 320 g/ha
Outline: as §3

Digitaria ciliaris [6] = assay: Test Example 4: herbicidal effect by soil treatment (symbol F); conditions: application herbicide amount 320 g/ha
Outline: as §3

Amaranthus retroflexus = assay: Test Example 4: herbicidal effect by soil treatment (symbol N); conditions: application herbicide amount 320 g/ha
Outline: as §3

Chenopodium album = assay: Test Example 5: herbicidal effect by foliage application, plastic box (symbol O); conditions: 320 g/ha, 3 weeks after application
Outline: as §1

Stellaria media = assay: Test Example 5: herbicidal effect by foliage application, plastic box (symbol P); conditions: 320 g/ha, 3 weeks after application
Outline: as §1

Veronica persica = assay: Test Example 4: herbicidal effect by soil treatment (symbol R); conditions: application herbicide amount 320 g/ha
Outline: as §3

SMILES	F: Digitaria ciliaris, herbicidal effect grade (Digitaria ciliaris [1])	L: Apera spica-venti, herbicidal effect grade (Apera spica-venti)	herbicidal effect on H (Echinochloa crus-galli var. crus-galli), grade 0-5 [2]	g: rapeseed, effect on crop grade (rapeseed)	Herbicidal effect grade, A: Echinochloa oryzacola Vasing. [3]	herbicidal effect on D (Leptochloa chinensis), grade 0-5 (Leptochloa chinensis)	M: Abutilon theophrasti, herbicidal effect grade (Abutilon theophrasti)	K: Lolium multiflorum Lam., herbicidal effect grade (Lolium multiflorum Lam.)	I: Avena fatua, herbicidal effect grade (Avena fatua)	b: directly sowed rice plant, effect on crop grade (rice plant)	J: Alopecurus myosuroides, herbicidal effect grade (Alopecurus myosuroides)	G: Setaria viridis, herbicidal effect grade (Setaria viridis [4])	G: Setaria viridis, herbicidal effect grade (Setaria viridis [5])	F: Digitaria ciliaris, herbicidal effect grade (Digitaria ciliaris [6])	N: Amaranthus retroflexus, herbicidal effect grade (Amaranthus retroflexus)	O: Chenopodium album, herbicidal effect grade (Chenopodium album)	P: Stellaria media, herbicidal effect grade (Stellaria media)	R: Veronica persica, herbicidal effect grade (Veronica persica)
CON=C(C)CC1CC(O)=C(c2c(C)cc(C)cc2OC)C1=O (stereo not drawn) [6-037, 3-hydroxy-2-(2-methoxy-4,6-dimethylphenyl)-5-{2-(methoxyimino)propyl}cyclopent-2-enone]	5 (Herbicidal ratio of 90% or more (almost completely withered))	5 (Herbicidal ratio of 90% or more (almost completely withered))	5 (Herbicidal ratio of 90% or more (almost completely withered))	3 (Herbicidal ratio of 40% or higher and lower than 70%)	5 (Herbicidal ratio of 90% or more (almost completely withered))	5 (Herbicidal ratio of 90% or more (almost completely withered))	5 (Herbicidal ratio of 90% or more (almost completely withered))	5 (Herbicidal ratio of 90% or more (almost completely withered))	5 (Herbicidal ratio of 90% or more (almost completely withered))	5 (Herbicidal ratio of 90% or more (almost completely withered))	5 (Herbicidal ratio of 90% or more (almost completely withered))	5 (Herbicidal ratio of 90% or more (almost completely withered))	5 (Herbicidal ratio of 90% or more (almost completely withered))	5 (Herbicidal ratio of 90% or more (almost completely withered))	3 (Herbicidal ratio of 40% or higher and lower than 70%)	3 (Herbicidal ratio of 40% or higher and lower than 70%)	4 (Herbicidal ratio of 70% or higher and lower than 90%)	1 (Herbicidal ratio of 5% or higher and lower than 20%)
C=Cc1cc(C)c(C2=C(O)CC(CC(C)=NOC)C2=O)c(C)c1 (mixture of isomers) [6-031]	5 (Herbicidal ratio of 90% or more (almost completely withered))	4 (Herbicidal ratio of 70% or higher and lower than 90%)	3 (Herbicidal ratio of 40% or higher and lower than 70%)	3 (Herbicidal ratio of 40% or higher and lower than 70%)	3 (Herbicidal ratio of 40% or higher and lower than 70%)	2 (Herbicidal ratio of 20% or higher and lower than 40%)	2 (Herbicidal ratio of 20% or higher and lower than 40%)	5 (Herbicidal ratio of 90% or more (almost completely withered))	0 (Herbicidal ratio of 5% or lower (almost no effect))	5 (Herbicidal ratio of 90% or more (almost completely withered))	0 (Herbicidal ratio of 5% or lower (almost no effect))	5 (Herbicidal ratio of 90% or more (almost completely withered))	0 (Herbicidal ratio of 5% or lower (almost no effect))	0 (Herbicidal ratio of 5% or lower (almost no effect))	4 (Herbicidal ratio of 70% or higher and lower than 90%)	3 (Herbicidal ratio of 40% or higher and lower than 70%)	0 (Herbicidal ratio of 5% or lower (almost no effect))	0 (Herbicidal ratio of 5% or lower (almost no effect))
